Key:
[1] = biological target: T1, Indoleamine 2,3-dioxygenase 1 (Homo sapiens, UniProt P14902); test: Inhibition of recombinant human IDO1 in HeLa cells at 100 nM relative to control; assay type: cell-based
Target sequence in this assay (P14902 whole entry, looked up): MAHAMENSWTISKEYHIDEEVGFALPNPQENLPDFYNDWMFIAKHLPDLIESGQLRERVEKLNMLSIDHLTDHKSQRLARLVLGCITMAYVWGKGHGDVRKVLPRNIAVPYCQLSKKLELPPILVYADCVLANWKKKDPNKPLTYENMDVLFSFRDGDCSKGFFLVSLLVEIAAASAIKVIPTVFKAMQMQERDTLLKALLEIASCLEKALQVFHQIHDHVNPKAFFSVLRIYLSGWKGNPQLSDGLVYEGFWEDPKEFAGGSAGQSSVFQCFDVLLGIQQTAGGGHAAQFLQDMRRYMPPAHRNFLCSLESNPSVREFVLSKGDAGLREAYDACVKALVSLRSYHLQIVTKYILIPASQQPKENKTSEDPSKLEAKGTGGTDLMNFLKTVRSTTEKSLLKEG

[2] = biological target: T2, Indoleamine 2,3-dioxygenase 2 (Homo sapiens) (UniProt Q6ZQW0); test: Inhibition of recombinant human IDO2 in HeLa cells at […] relative to control; assay type: cell-based
T2 sequence (whole entry): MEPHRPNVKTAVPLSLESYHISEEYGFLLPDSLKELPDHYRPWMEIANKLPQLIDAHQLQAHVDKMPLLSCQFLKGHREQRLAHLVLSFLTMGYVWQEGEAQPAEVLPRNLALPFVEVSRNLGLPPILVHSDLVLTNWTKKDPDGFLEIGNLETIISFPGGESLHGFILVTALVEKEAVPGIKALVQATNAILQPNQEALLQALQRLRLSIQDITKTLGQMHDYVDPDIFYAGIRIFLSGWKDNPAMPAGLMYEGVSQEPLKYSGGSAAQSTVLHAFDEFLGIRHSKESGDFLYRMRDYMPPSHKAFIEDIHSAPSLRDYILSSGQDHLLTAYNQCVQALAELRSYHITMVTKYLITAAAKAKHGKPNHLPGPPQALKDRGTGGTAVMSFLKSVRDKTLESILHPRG

HeLa [3] = test: Antiproliferative activity against human HeLa cells; assay type: functional, cell-based
HeLa [4] = test: Antiproliferative activity against human HeLa cells at 5 uM; assay type: functional
[5] = biological target: T2, Indoleamine 2,3-dioxygenase 2 (Homo sapiens); test: Inhibition of recombinant human IDO2 in HeLa cells at 100 nM relative to control; assay type: cell-based
[6] = biological target: T1, Indoleamine 2,3-dioxygenase 1; test: Inhibition of IDO1 (unknown origin)
Target sequence in this assay (P14902 whole entry): as the sequence (P14902 whole entry, looked up) above

[7] = biological target: T3, Indoleamine 2,3-dioxygenase 2 (Homo sapiens, UniProt Q6ZQW0); test: Inhibition of IDO2 (unknown origin)
T3 sequence (Q6ZQW0 whole entry): T2 sequence (whole entry)

[8] = biological target: T1, Indoleamine 2,3-dioxygenase 1; test: Inhibition of human IDO1
Target sequence in this assay (P14902 whole entry): as the sequence (P14902 whole entry, looked up) above

[9] = biological target: T3, Indoleamine 2,3-dioxygenase 2; test: Inhibition of human IDO2
Mus musculus [10] = test: Antiinflammatory activity against xylene-induced ear swelling ICR mouse model assessed as swelling rate at 100 mg/kg, IG measured after 1 hr (Activity = 58.21 +/- 12.79%); assay type: functional
Mus musculus [11] = test: Antiinflammatory activity against xylene-induced ear swelling ICR mouse model assessed as swelling inhibition ratio at 100 mg/kg, IG measured after 1 hr; assay type: functional; design: scale not given: the % may be the effect or the level left

Row | inhibition [1] [%] | inhibition [2] [%] | EC50 (HeLa [3]) [nM] | inhibition [5] [%] | SMILES | also measured
1 | 26 | 5 | 1790 |  | O=C(NCc1cn(CCNc2nonc2/C(=N/O)NCc2ccc(F)c(Br)c2)nn1)c1ccccn1 | 
2 | 1 | 4 | 2850 |  | O=C(NCc1cn(CCNc2nonc2/C(=N/O)NCc2ccccc2Br)nn1)c1ccc[nH]1 | 
3 | 12 | 70 | 835 | 24 | O=C(NCc1cn(CCNc2nonc2/C(=N/O)NCc2cccc(Br)c2)nn1)c1ccc[nH]1 | 
4 | 14 | 15 |  |  | C[C@H](N/C(=N\O)c1nonc1NCCn1cc(CNC(=O)c2ccc[nH]2)nn1)c1cccc(Br)c1 | Activity (HeLa [4]): 22.74%
5 | 75 | 86 | 73 | 51 | O=C(NCc1cn(CCNc2nonc2/C(=N/O)Nc2ccc(F)c(Br)c2)nn1)c1ccc[nH]1 | IC50 [8]: 47 nM; IC50 [9]: 134 nM; Activity (Mus musculus [10]): 27.84%; Activity (Mus musculus [11]): 52.17%

More lines, now with the values behind:

Row | SMILES | inhibition [1] [%] | inhibition [2] [%] | EC50 (HeLa [3]) [nM] | inhibition [5] [%] | also measured
6 | C[C@H](N/C(=N\O)c1nonc1NCCn1cc(CNC(=O)c2ccccn2)nn1)c1cccc(Br)c1 | 3 | 15 |  |  | Activity (HeLa [4]): 17.87%
7 | Cc1cc(Br)cc(N/C(=N\O)c2nonc2NCCn2cc(CNC(=O)c3ccccn3)nn2)c1 | 20 | 61 | 611 | 14 | 
8 | O=C(NCc1cn(CCNc2nonc2/C(=N/O)NCc2ccc(Br)cc2)nn1)c1ccccn1 | 0 | 1 | 3420 |  | 
9 | COc1ccc2[nH]c([S+]([O-])Cc3ncc(C)c(OC)c3C)nc2n1 (stereo not drawn) [TENATOPRAZOLE] |  |  |  |  | IC50 [6]: > 100000 nM; IC50 [7]: 1800 nM
10 | O=C(NCc1cn(CCNc2nonc2/C(=N/O)Nc2ccc(F)c(Br)c2)nn1)c1ccccn1 | 72 | 61 | 129 | 39 | IC50 [8]: 52 nM; IC50 [9]: 387 nM; Activity (Mus musculus [10]): 36.71%; Activity (Mus musculus [11]): 36.94%
11 | O=C(NCc1cn(CCNc2nonc2/C(=N/O)Nc2cccc(Br)c2)nn1)c1ccccn1 | 71 | 64 | 65 | 16 | IC50 [8]: 37 nM; IC50 [9]: 575 nM
12 | COc1ccc2cc([C@H](C)C(=O)O)ccc2c1 [NAPROXEN] |  |  |  |  | Activity (Mus musculus [10]): 31.85%; Activity (Mus musculus [11]): 45.29%
13 | O=C(NCc1cn(CCNc2nonc2/C(=N/O)Nc2cc(Br)cc(C(F)(F)F)c2)nn1)c1ccccn1 | 5 | 23 | 3630 |  | 
14 | c1ccc(CCc2ccccc2-c2c[nH]nn2)cc1 |  |  |  |  | IC50 [7]: 51000 nM

Source: ChEMBL document CHEMBL5214930, “Discovery of the First Selective IDO2 Inhibitor As Novel Immunotherapeutic Avenues for Rheumatoid Arthritis” (J Med Chem, 2022)
